From patent publication US11793879B2, “Monolithic composition for dual-rate release with high drug loading” (priority 2016, dated 2023)

Settings: for immediate release / immediate release (amount): Example 5 monolithic tablet (900 mg acetaminophen + 100 mg caffeine), after 30 minutes in SGF
Procedure: The dissolution kinetic assay is followed with a Distek™ apparatus according to the paddle method from USP-32, with slight modification. Indeed, the monolithic tablets are placed in 750 mL of simulated gastric fluid (SGF, pH 1.5) during 30 minutes, at 37° C. Thereafter, a volume of 250 mL of sodium tripolyphosphate 0.20 M is added directly in SGF to neutralize the gastric acidity for pH values of about 6.8-7.0 which constituted the pH of simulated intestinal fluid (SIF).
At different intervals of 30 minutes, an aliquot of 1 mL of dissolution fluid is withdrawn from dissolution media, filtered and properly diluted (approximately 1/50). The absorbency is measured with an UV spectrometer (Lambda-40 Spectrometer, Perkin Elmer) at 247 nm.
The Carboxymethyl starch is prepared according to the process of the present invention. […] For acetaminophen, the absorbency of samples is measured with an UV spectrometer at 247 nm. For caffeine, the dosage is carried out by HPLC according to method described by Hassouna et al. (Hassouna, M. E. M, Issa, Y. M. and Zayed, A. G. 2012. J. Appl. Pharm. Sci., 02, 52-59)

| Compound | immediate release [%] | immediate release (amount) [mg] | immediate release of Acetaminophen (amount) (Example 4 monolithic tablet (1000 mg acetaminophen), after 45 minutes (30 minutes in SGF and 15 minutes in SIF)) [mg] | immediate release of Acetaminophen (Example 4 monolithic tablet (1000 mg acetaminophen, carboxymethyl starch excipient), after 45 minutes (30 minutes in SGF pH 1.5 and 15 minutes in SIF), 37° C., FIG. 2) [%] |
| --- | --- | --- | --- | --- |
| Cn1c(=O)c2c(ncn2C)n(C)c1=O [caffeine, Caffeine] | ~25 | ~25 |  |  |
| CC(=O)Nc1ccc(O)cc1 [Acetaminophen] | ~35 | ~350 | ~600 | ~60 |
